For 17 compounds, inhibition and IC50 results are on record in US8168651B2, “Protein kinase modulators” (Cylene Pharmaceuticals, Inc., priority 2008, dated 2012).

pIC50: −log10 of the molar value.

For one experiment, the target named is recombinant human CK2 (Homo sapiens (Human), UniProt P68400). As to the kind of experiment: CK2 assay (cell-free, 33P-ATP filter plate). It is filed as biochemical. As to conditions: 500 nM compound, cell-free assay; read-out: CK2: % inh 500 nM.
Experiment [1] has as its system HCT-116 human colorectal carcinoma cells. As to the kind of experiment: Cell-proliferation assay using Alamar Blue dye.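 Also: cells exposed to compound for about 4 days, then Alamar Blue added and dye fluorescence read after about 4 h, compared with medium-only control wells.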 It is filed as cell-based. The settings on record: Homo sapiens, HCT-116, second HCT-116 column (c8); read-out: HCT-116 (uM) cell proliferation modulatory activity. (In general: Resazurin is reduced to fluorescent resorufin, in cell work by metabolically active cells.)

The target of another experiment is recombinant human PIM1 (Homo sapiens (Human), UniProt P11309). As to the kind of experiment: PIM-1 kinase activity in cell-free in vitro assay. It is filed as biochemical. As to conditions: cell-free assay; for inhibition at 0.5 µM: 500 nM compound, read-out: PIM-1: % inh 500 nM.
A further experiment has as its system K-562. As to the kind of experiment: Cell proliferation modulatory activity, K-562. The settings on record: Homo sapiens, K562; K-562 cells. It is filed as cell-based.
Another experiment deals with MV-4-11. The experiment can be described thus: Cell proliferation modulatory activity, MV-4-11. Type of experiment: cell-based. The settings on record: Homo sapiens, MV4-11; MV-4-11 cells.

recombinant human PIM1, sequence (P11309 whole entry): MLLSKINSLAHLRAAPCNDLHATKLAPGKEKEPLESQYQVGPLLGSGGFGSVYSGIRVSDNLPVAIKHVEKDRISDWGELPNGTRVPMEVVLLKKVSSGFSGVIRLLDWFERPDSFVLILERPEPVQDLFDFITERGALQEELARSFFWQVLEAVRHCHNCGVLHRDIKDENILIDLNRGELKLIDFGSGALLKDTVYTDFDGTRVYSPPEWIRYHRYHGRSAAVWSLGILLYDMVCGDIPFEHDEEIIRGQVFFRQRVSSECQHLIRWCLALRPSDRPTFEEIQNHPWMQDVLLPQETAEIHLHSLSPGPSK
recombinant human CK2, sequence (P68400 whole entry): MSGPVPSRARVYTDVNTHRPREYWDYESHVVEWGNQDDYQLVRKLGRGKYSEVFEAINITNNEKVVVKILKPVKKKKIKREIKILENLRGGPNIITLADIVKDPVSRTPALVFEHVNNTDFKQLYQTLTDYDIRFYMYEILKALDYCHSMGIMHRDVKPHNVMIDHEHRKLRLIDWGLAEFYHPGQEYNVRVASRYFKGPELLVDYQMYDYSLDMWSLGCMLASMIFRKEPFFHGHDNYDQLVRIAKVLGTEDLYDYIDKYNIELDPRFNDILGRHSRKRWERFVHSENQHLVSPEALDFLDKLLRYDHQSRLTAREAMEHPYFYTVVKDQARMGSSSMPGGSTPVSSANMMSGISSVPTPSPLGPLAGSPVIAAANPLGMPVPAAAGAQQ
recombinant human CK2, sequence (P67870 whole entry partner): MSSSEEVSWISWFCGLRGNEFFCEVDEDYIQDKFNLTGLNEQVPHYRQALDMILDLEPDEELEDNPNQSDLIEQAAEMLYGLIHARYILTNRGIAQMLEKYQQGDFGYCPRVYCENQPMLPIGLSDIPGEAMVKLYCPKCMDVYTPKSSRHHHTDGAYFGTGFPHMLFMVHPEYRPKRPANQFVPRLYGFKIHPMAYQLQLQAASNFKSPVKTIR

As for `O=C(O)c1ccc2c(c1)nc(Nc1ccc(F)c(Cl)c1)c1nccnc12`, the inhibition at 0.5 µM on recombinant human CK2 was 36.5%; at recombinant human PIM1 it was -0.602%. Moreover, the IC50 (in experiment [1]; in the experiment with K-562; in the experiment on MV-4-11) was > 10 µM in each case.
In the case of `C#Cc1cccc(Nc2nc3cc(C(=O)O)ccc3c3ccncc23)c1`, the inhibition at 0.5 µM on recombinant human CK2 worked out at 72.4%; at recombinant human PIM1, 46.6%. Besides, the IC50 (in experiment [1]; in the experiment with K-562; with MV-4-11) was > 10 µM in each case.
On to `N#Cc1ccc2c(c1)nc(N1CCC(N)C1)c1ccsc12` (stereo not drawn), for which the inhibition at 0.5 µM on recombinant human CK2 was -2.47%; on recombinant human PIM1, 9.1%. The IC50 (in experiment [1]; in the experiment on K-562; in the experiment on MV-4-11) was > 10 µM in each case.
On to `COC(=O)c1ccc2c(c1)nc(NN)c1ccncc12`, for which the inhibition at 0.5 µM at recombinant human CK2 was -8.65%; on recombinant human PIM1, -32.4%. Also, the IC50 (in experiment [1]; in the experiment on K-562) was > 10 µM each time.
A word on the pIC50: it is the negative decadic logarithm of the IC50, by convention in mol/L. With `CON(C)c1nc2cc(C(=O)O)ccc2c2cnccc12`, the inhibition at 0.5 µM on recombinant human CK2 is 84.7%; at recombinant human PIM1 it was 55.7%. Also, the IC50 (in experiment [1]; with K-562) was > 10 µM in each case. For the same compound, the pIC50 on recombinant human PIM1 was 6.05.
As for `O=C(O)c1ccc2c(c1)nc(Nc1cccc(Cl)c1)c1ncccc12`, the inhibition at 0.5 µM on recombinant human CK2 was found to be 40%; on recombinant human PIM1, 16.7%. Moreover, the IC50 (in experiment [1]; in the experiment on K-562) was > 10 µM in each case.
Take `O=C(O)c1ccc2c(c1)nc(Nc1ccccc1Cl)c1ccncc12`: the inhibition at 0.5 µM at recombinant human CK2 is 97.3%; on recombinant human PIM1, 70.7%. Besides, the IC50 (in experiment [1]; in the experiment with K-562) was > 10 µM each time. Also, the pIC50 on recombinant human PIM1 is 6.43.
Consider `Cc1nccn1CCNc1nc2cc(C(=O)O)ccc2c2cnccc12`, for which the IC50 (in experiment [1]; in the experiment on K-562; with MV-4-11) was > 10 µM each time. Besides, the inhibition at 0.5 µM at recombinant human PIM1 was found to be 97.1%. In addition, on recombinant human PIM1, the pIC50 is 6.54.
Turning to `O=C(O)c1ccc2c(c1)nc(NCCNc1ccccc1)c1ccncc12`, the figures for the IC50 (in experiment [1]; in the experiment on K-562; with MV-4-11) were > 10 µM, > 10 µM and 0.185 µM, respectively. On recombinant human PIM1, the pIC50 is 6.15.
Turning to `CN(c1ccccc1)c1nc2cc(C(=O)O)ccc2c2cnccc12`, the results for the inhibition at 0.5 µM on recombinant human CK2 and on recombinant human PIM1 were 89% and 71.2%, respectively. Besides, the IC50 (in experiment [1]; with K-562) was > 10 µM throughout. Further, the pIC50 on recombinant human PIM1 is 6.36.
Regarding `Cc1cc(Nc2nc3cc(C(=O)O)ccc3c3cnccc23)c2ccccc2n1`, the inhibition at 0.5 µM on recombinant human CK2 was 96.6%; at recombinant human PIM1 it was 24.9%. In addition, the IC50 (in experiment [1]; in the experiment with K-562) was > 10 µM in each case.
Regarding `Cc1ccccc1Nc1nc2cc(C(=O)O)ccc2c2cnc(NC3CC3)nc12`, the IC50 in experiment [1] was 10 µM; in the experiment on K-562, 0.769 µM; in the experiment with MV-4-11 it was 0.165 µM. Further, the inhibition at 0.5 µM on recombinant human PIM1 was determined as 31.9%.
Take `O=C(O)c1ccc2c(c1)nc(Nc1ccccc1OC(F)(F)F)c1ccncc12`: the inhibition at 0.5 µM came out at 92% at recombinant human CK2 and 32.5% at recombinant human PIM1. Also, the IC50 (in experiment [1]; with K-562) was > 10 µM each time.
As for `O=C(O)c1ccc2c(c1)nc(NCC1CCN1Cc1ccccc1)c1ccncc12` (stereo not drawn), the inhibition at 0.5 µM on recombinant human CK2 is 55.9%; at recombinant human PIM1, -7.8%. Further, the IC50 (in experiment [1]; in the experiment on K-562) was > 10 µM in each case.
Consider `CONc1nc2cc(C(=O)O)ccc2c2cnccc12`, for which the inhibition at 0.5 µM turned out to be 94.7% at recombinant human CK2 and 34.9% on recombinant human PIM1. Moreover, the IC50 (in experiment [1]; with K-562) was > 10 µM each time.
In the case of `CN(c1ccccc1)c1nc2cc(C(=O)O)ccc2c2cnc(N)nc12`, the IC50 (in experiment [1]; with K-562; in the experiment with MV-4-11) was > 10 µM throughout. For the same compound, at recombinant human PIM1, the pIC50 was 6.65.
As for `O=C(O)c1ccc2c(c1)nc(Nc1ccc(F)c(Cl)c1)c1ncccc12`, the inhibition at 0.5 µM at recombinant human CK2 is 12.3%; on recombinant human PIM1, -15.5%. For the same compound, the IC50 (in experiment [1]; with K-562) was > 10 µM in each case.
